# Active and inactive are the calls of the source.
# Columns and labels:
# [1] = target: DNA dC->dU-editing enzyme APOBEC-3G (Homo sapiens, UniProt Q9HC16); experiment: Dose Response confirmation of small molecule APOBEC3G DNA Deaminase Inhibitors via a fluorescence-based single-stranded DNA deaminase assay. [Related pubchem assays (depositor defined):AID493012, AID493028]; format: functional
# [2] = target: DNA dC->dU-editing enzyme APOBEC-3A (Homo sapiens, UniProt P31941); experiment: A3A deaminase inhibition for selectivity – biochemical, dose response (AID 504722); format: functional
# HEK293 = experiment: EBV LMP1 TES2 canonical NF-kB signalling blockers – cell-based, HEK293, luciferase, cherry-pick, dose response (AID 588343); format: functional; settings: Homo sapiens
# [3] = target: T1, Endoribonuclease toxin MazF (Escherichia coli K-12, UniProt P0AE70); experiment: activation of MazEF endoribonuclease cleavage – biochemical, fluorescence, single-stranded RNA substrate, uHTS hits, dose response (AID 588481); format: functional
# T1 sequence (P0AE70 whole entry): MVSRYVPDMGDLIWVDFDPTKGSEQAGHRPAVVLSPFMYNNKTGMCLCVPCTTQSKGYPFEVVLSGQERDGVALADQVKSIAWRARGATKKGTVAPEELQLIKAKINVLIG
# [4] = target: T1, Endoribonuclease toxin MazF; experiment: substrate-only fluorescence increase artefacts – biochemical, single-stranded RNase substrate, counter-screen for MazEF activator project, dose response (AID 588502); format: functional
# [5] = viability of HCT116 lacking mutant beta-catenin – cell-based, human colon tumor, dose response (AID 1045); format: functional;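 also: HCT116 colon tumor cells with beta catenin knocked out; cells exposed to compound for 60 hours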
# Troponin, cardiac muscle = Troponin, cardiac muscle (Homo sapiens, UniProt P19429+P45379+P63316); experiment: Fluorescence-based biochemical high throughput dose response assay for activators of the calcium sensitivity of cardiac Regulated Thin Filaments (RTF). [Related pubchem assays (depositor defined):AID493008, AID493018, AID504382, AID504383]; format: protein-complex assay
# [6] = viability of PTEN-deleted HCT116 cells – cell-based, HCT116 PTEN knockout, dose response (AID 1047); format: functional;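 also: HCT116 colon tumor cells with PTEN knocked out; cells exposed to compound for 60 hours before readout; potency for loss of cell viability measured by luminescence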
# Melanocortin receptor 4 = Melanocortin receptor 4 (Homo sapiens, UniProt P32245); format: functional, cell-based;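 also: Cell-based assay with luminescence read-out, confirmatory dose-response testing for agonist activity of biased ligands at MC4R; human U2OS cells with tagged receptor and beta-arrestin; potency of agonists that increase receptor coupling to beta-arrestin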
# [7] = Luminescence Cell-Based Dose Retest to Confirm Inhibitors of Cancer Stem Cells. [Related pubchem assays (depositor defined):AID2717, AID2721]; format: functional; settings: Homo sapiens
# [8] = reduction of Shn3 3'UTR-driven luciferase in osteoblasts – cell-based, Clone20 osteoblasts, firefly luciferase, cherry-picked, dose response (AID 624132); format: functional;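 also: firefly luciferase luminescence from reporter carrying the Shn3 3'UTR in osteoblasts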
# [9] = loss of viability in HepG2 cells – cell-based, CellTiter-Glo, cherry-picked, cytotoxicity control for Shn3 inhibitor project, dose response (AID 624134); format: functional
# [10] = non-specific 3'UTR reporter inhibition in Clone20-Shn3RL – cell-based, Renilla luciferase, cherry-picked, counter-screen for Shn3 inhibitor project, dose response (AID 624133); format: functional
# Protein Wnt-3a = Protein Wnt-3a (Mus musculus, UniProt P27467); experiment: antagonism of Wnt3a pathway luciferase reporter – Wnt-LIGHT cells, luminescence, selectivity assay for Gli-SUFU antagonist project, dose response (AID 651570); format: functional; settings: read-out: IC50_Mean;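 also: Wnt-LIGHT reporter cells stimulated with conditioned medium from Wnt3a-producing cells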
# [11] = target: T2, Replicative DNA helicase DnaB (Mycobacterium tuberculosis, UniProt P9WMR3); experiment: DnaB intein splicing inhibitors, dose response, biochemical, cell-free fluorescence (AID 449749); format: functional
# T2 sequence (P9WMR3 whole entry): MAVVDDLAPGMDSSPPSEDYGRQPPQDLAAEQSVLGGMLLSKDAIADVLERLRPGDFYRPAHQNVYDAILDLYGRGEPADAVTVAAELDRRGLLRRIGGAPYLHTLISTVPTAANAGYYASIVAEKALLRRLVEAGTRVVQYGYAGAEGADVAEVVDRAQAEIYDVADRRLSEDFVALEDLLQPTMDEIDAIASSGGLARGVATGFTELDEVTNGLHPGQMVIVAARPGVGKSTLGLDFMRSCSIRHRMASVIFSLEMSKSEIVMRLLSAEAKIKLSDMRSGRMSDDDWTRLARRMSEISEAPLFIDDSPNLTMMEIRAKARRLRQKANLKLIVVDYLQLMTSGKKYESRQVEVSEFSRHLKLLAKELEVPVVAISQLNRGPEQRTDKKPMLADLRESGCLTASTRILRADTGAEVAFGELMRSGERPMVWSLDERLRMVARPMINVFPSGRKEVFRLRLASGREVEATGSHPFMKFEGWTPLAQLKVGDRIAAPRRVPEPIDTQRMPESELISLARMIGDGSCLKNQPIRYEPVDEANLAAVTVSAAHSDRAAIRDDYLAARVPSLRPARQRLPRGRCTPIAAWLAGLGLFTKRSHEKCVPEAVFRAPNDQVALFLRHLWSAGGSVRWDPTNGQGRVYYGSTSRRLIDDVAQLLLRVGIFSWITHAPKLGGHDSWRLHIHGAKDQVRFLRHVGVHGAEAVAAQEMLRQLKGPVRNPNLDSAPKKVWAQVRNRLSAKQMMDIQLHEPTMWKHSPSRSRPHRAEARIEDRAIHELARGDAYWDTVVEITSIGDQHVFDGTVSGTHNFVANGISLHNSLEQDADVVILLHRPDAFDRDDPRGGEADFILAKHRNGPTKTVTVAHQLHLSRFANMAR
# Protein RecA = target: T3, Protein RecA (Mycobacterium tuberculosis, UniProt P9WHJ3); experiment: Fluorescence Cell-Free Homogeneous Dose Retest to Identify Inhibitors of RecA-Intein Splicing Activity. [Related pubchem assays (depositor defined):AID2097, AID2223, AID489010, AID492950]; format: functional
# T3 sequence (P9WHJ3 whole entry): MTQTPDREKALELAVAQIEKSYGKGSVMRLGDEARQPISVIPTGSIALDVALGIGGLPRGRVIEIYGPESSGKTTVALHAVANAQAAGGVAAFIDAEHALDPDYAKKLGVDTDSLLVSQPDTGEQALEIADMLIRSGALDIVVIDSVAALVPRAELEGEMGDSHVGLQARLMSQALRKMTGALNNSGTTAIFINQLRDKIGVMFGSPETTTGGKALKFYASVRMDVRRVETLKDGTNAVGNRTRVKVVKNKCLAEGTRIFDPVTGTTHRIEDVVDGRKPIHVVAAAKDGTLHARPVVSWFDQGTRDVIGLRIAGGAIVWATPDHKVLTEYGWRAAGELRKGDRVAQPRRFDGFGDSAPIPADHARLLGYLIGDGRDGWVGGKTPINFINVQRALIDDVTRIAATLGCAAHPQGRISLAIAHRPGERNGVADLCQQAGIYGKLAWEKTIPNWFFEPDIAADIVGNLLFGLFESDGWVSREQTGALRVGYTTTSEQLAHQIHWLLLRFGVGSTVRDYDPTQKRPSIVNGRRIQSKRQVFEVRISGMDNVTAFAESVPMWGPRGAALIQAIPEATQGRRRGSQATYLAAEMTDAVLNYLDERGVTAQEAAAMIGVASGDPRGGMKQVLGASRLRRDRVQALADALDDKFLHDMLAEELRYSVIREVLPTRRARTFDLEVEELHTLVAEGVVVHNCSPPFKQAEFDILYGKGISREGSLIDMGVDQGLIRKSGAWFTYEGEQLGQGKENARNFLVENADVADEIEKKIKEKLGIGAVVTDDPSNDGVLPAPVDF
# Escherichia coli = experiment: microbe, parasite or virus in culture
# [12] = target: T4, Short transient receptor potential channel 4 (Mus musculus, UniProt Q9QUQ5); experiment: block of DAMGO-driven TRPC4 calcium entry – cell-based, HEK293 TRPC4/mu-opioid, Fluo-4 calcium, dose response (AID 434942); format: functional;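 also: potency of inhibitors blocking the TRPC4 calcium response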
# T4 sequence (Q9QUQ5 whole entry): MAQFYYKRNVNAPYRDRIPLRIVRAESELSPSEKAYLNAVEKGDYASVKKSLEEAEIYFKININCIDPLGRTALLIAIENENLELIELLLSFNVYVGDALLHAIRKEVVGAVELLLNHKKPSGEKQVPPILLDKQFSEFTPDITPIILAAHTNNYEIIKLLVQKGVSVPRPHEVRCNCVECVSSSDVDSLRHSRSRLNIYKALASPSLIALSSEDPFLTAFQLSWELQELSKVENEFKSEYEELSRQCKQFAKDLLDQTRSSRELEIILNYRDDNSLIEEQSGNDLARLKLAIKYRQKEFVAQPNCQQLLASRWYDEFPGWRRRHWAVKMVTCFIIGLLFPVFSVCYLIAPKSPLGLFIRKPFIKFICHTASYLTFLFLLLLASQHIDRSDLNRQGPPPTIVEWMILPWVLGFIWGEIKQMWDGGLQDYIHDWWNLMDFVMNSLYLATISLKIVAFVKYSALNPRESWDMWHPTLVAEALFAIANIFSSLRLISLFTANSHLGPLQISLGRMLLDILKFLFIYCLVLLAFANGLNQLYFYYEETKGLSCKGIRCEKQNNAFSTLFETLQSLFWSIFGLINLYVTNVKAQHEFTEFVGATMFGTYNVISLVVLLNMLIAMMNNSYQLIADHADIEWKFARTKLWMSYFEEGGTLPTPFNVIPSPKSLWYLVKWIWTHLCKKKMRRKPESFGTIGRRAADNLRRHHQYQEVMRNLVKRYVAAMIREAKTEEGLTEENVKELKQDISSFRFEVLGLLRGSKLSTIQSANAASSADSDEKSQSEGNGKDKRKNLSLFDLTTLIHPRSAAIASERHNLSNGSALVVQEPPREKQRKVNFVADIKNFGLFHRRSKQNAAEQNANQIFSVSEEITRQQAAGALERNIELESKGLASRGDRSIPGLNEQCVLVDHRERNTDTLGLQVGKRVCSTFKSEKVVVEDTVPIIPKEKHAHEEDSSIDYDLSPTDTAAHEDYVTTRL
# [13] = target: Dual specificity tyrosine-phosphorylation-regulated kinase 1A (Rattus norvegicus, UniProt Q63470); format: biochemical, Homo sapiens
# SN12K1 = experiment: cells; format: functional; settings: Homo sapiens
# P388 = experiment: cells; format: functional; settings: Mus musculus
# P388/ADR = experiment: cells; format: functional; settings: Mus musculus
# [14] = target: T5, Carboxy-terminal domain RNA polymerase II polypeptide A small phosphatase 1 (Homo sapiens, UniProt Q9GZU7); experiment: CTDSP1 inhibitors, concentration-response, biochemical, absorbance readout, ultra-high-throughput screen actives (AID 540297); format: functional
# T5 sequence (Q9GZU7 whole entry): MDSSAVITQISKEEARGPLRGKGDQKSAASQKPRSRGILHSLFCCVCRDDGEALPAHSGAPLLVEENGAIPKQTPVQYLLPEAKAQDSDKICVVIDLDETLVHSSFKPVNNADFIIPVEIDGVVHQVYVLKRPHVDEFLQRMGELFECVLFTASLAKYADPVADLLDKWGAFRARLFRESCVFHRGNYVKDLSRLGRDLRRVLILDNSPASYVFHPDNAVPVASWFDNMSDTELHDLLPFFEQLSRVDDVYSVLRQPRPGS
# Cytochrome P450 3A4 = Cytochrome P450 3A4 (Homo sapiens, UniProt P08684);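 also: CYP3A4 tested as one member of a cytochrome P450 panel screen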
# Cytochrome P450 2D6 = Cytochrome P450 2D6 (Homo sapiens, UniProt P10635);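 also: CYP2D6 member of a cytochrome P450 panel assay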
# INS1 = experiment: INS-1E survival protection against cytokine death – cell-based, luminescence, retest, dose response (AID 449756); format: functional; settings: Rattus norvegicus;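 also: cell death triggered by IL-1 beta plus TNF-alpha plus IFN-gamma mixture; protective hits raise ATP signal compared with cytokine alone wells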
structure (smiles),measurement,setting,value
Sc1nnc(C2CCCCC2)n1/N=C/c1ccncc1,IC50,[1],7.27 µM (active)
same,IC50,[2],> 100 µM (inactive)
same,AC50,HEK293,11.5 µM (active)
CC1CC(=O)N(c2ccc(NCc3ccc(Cl)cc3)c([N+](=O)[O-])c2)C1=O (stereo not given),EC50,[3],96.1 µM (inactive)
same,EC50,[4],> 99 µM (inactive)
N#C/C(=C\c1ccc(-c2ccc(F)cc2)o1)C(=O)Nc1nc(-c2cccs2)cs1,EC50,[3],> 99 µM (inactive)
same,EC50,[4],27.2 µM (inactive)
same,EC50,[5],25.6 µM (active)
same,EC50,"Troponin, cardiac muscle",> 71.5 µM (inactive)
same,EC50,[6],30 µM (active)
same,EC50,Melanocortin receptor 4,> 89.2 µM (inactive)
COc1ccc(-c2sc3ccc(N4CCOCC4)cc3c2C#CC2(O)CCCCC2)cc1,AC50,[7],749 nM (active)
same,EC50,Melanocortin receptor 4,> 89.2 µM (inactive)
CN(Cc1nccs1)C(=O)c1cc(COc2cccc3cnccc23)on1,AC50,[8],2.77 µM (active)
same,AC50,[9],48.5 µM (active)
same,AC50,[10],1.2 µM (active)
same,IC50,Protein Wnt-3a,1.3 µM (active)
CC(=O)Nc1cc(-c2cccc(C(=O)N(C)C)c2)cn2c(-c3ccc(F)c(Cl)c3)cnc12,EC50,Melanocortin receptor 4,> 89.2 µM (inactive)
O=c1oc(/C=C/c2ccco2)nc2sc3c(c12)CCC3,EC50,[3],> 99 µM (inactive)
same,EC50,[4],> 99 µM (inactive)
COc1ccccc1-c1c(-c2ccc(O)cc2O)n[nH]c1C(F)(F)F,IC50,Protein Wnt-3a,2.07 µM (active)
CC(=O)c1ccc(-c2cccc(-c3nc4ccccn4c3NC3CCCCC3)c2)cc1,AC50,[11],377 nM (active)
same,EC50,Protein RecA,178 nM (active)
same,AC50,Escherichia coli,299 µM (active)
Cc1cc(Nc2ccccc2)nc2cc(O)ccc12,EC50,[12],3.76 µM (active)
same,AC50,[13],4.44 µM (active)
COC(=O)CSc1ncnc2c1sc1nc3c(cc12)COC(C)(C)C3,AC50,HEK293,4.32 µM (active)
COc1cccc(-c2cnc3c(NC(C)=O)cc(-c4ccc(C(=O)N5CCOCC5)cc4)cn23)c1,EC50,Melanocortin receptor 4,> 89.2 µM (inactive)
CCN1CCN(Cc2ccc(NC(=O)c3ccc(C)c(NC(=O)c4nccn4C)c3)cc2C(F)(F)F)CC1,AC50,HEK293,1.56 µM (active)
O=C1C(O)=C(CC=C(Cl)Cl)C(=O)c2ccccc21,GI50,SN12K1,1.11 µM (active)
same,GI50,P388,1.8 µM (inactive)
same,GI50,P388/ADR,1.6 µM (inactive)
same,AC50,[13],4.87 µM (active)
Cc1nn(-c2ccccc2)c(O)c1/C=N/c1ccc2[nH]c(O)nc2c1,EC50,[3],> 99 µM (inactive)
same,EC50,[4],> 99 µM (inactive)
O=C(C=C1SCCS1)/C=C/c1ccco1,IC50,[14],7.85 µM (active)
same,AC50,Cytochrome P450 3A4,15.8 µM (inconclusive)
same,AC50,HEK293,10.8 µM (active)
same,AC50,Cytochrome P450 2D6,17.8 µM (inconclusive)
COc1ccc(O)c(-c2cc(-c3cccs3)[nH]n2)c1,AC50,[13],10.6 µM (active)
Cc1sc2ncnc(N3CCN(S(=O)(=O)c4ccc(C(C)(C)C)cc4)CC3)c2c1C,AC50,INS1,3.23 µM (active)
same,IC50,Protein Wnt-3a,6.86 µM (active)
O=C1C(Cl)=C(NCCc2ccccc2)C(=O)N1CCc1ccccc1,EC50,[3],> 99 µM (inactive)
same,EC50,[4],> 99 µM (inactive)
O=C(NCc1ccco1)c1sc2ccccc2c1Cl,AC50,[13],7.39 µM (active)
